Measured values published in the NIST ThermoML archive (doi:10.1016/j.tca.2013.08.031).

Test: molar heat capacity at constant volume
Conditions: Fluid (supercritical or subcritical phases), Vacuum adiabatic calorimetry

CCC(C)O (stereo not given) [butan-2-ol]
Conditions	molar heat capacity at constant volume [J/K/mol]
535.75 K, Mass density=276.45 kg/m3	527.97
535.77 K, Mass density=276.45 kg/m3	533.08
535.79 K, Mass density=276.45 kg/m3	548.5
535.81 K, Mass density=276.45 kg/m3	529.67
535.83 K, Mass density=276.45 kg/m3	536.49
535.85 K, Mass density=276.45 kg/m3	560.43
535.86 K, Mass density=276.45 kg/m3	562.14
535.88 K, Mass density=276.45 kg/m3	565.55
535.9 K, Mass density=276.45 kg/m3	627.07
535.92 K, Mass density=198.25 kg/m3	287.44
535.92 K, Mass density=245.67 kg/m3	437.17
535.92 K, Mass density=276.45 kg/m3	603.13
535.92 K, Mass density=279.19 kg/m3	513.14
535.92 K, Mass density=284.93 kg/m3	498.99
535.92 K, Mass density=286.65 kg/m3	532.71
535.92 K, Mass density=301.19 kg/m3	383.21
535.92 K, Mass density=347.06 kg/m3	252.01
535.94 K, Mass density=284.93 kg/m3	419.68
535.94 K, Mass density=286.65 kg/m3	578.37
535.95 K, Mass density=284.93 kg/m3	421.31
535.95 K, Mass density=286.65 kg/m3	524.41
535.97 K, Mass density=284.93 kg/m3	349.85
535.97 K, Mass density=286.65 kg/m3	524.41
535.99 K, Mass density=284.93 kg/m3	316.57
536.01 K, Mass density=284.93 kg/m3	314.87
536.01 K, Mass density=286.65 kg/m3	402.85
536.02 K, Mass density=284.93 kg/m3	309.9
536.02 K, Mass density=286.65 kg/m3	345.48
536.04 K, Mass density=284.93 kg/m3	311.53
536.04 K, Mass density=286.65 kg/m3	354.45
536.06 K, Mass density=284.93 kg/m3	311.53
536.06 K, Mass density=286.65 kg/m3	328.36
536.07 K, Mass density=284.93 kg/m3	306.57
536.07 K, Mass density=286.65 kg/m3	328.58
536.1 K, Mass density=198.25 kg/m3	281.66
536.1 K, Mass density=245.67 kg/m3	331.55
536.1 K, Mass density=279.19 kg/m3	476.23
536.1 K, Mass density=284.93 kg/m3	291.59
536.1 K, Mass density=286.65 kg/m3	323.99
536.1 K, Mass density=301.19 kg/m3	296.49
536.1 K, Mass density=347.06 kg/m3	251.27
536.29 K, Mass density=198.25 kg/m3	285.44
536.29 K, Mass density=245.67 kg/m3	329.17
536.29 K, Mass density=276.45 kg/m3	321.32
536.29 K, Mass density=279.19 kg/m3	304.71
536.29 K, Mass density=284.93 kg/m3	286.04
536.29 K, Mass density=286.65 kg/m3	321.09
536.29 K, Mass density=301.19 kg/m3	280.18
536.29 K, Mass density=347.06 kg/m3	249.79
536.47 K, Mass density=245.67 kg/m3	323.47
536.47 K, Mass density=276.45 kg/m3	313.68
536.47 K, Mass density=279.19 kg/m3	298.27
536.47 K, Mass density=284.93 kg/m3	280.77
536.47 K, Mass density=286.65 kg/m3	317.39
536.47 K, Mass density=301.19 kg/m3	281.66
536.47 K, Mass density=347.06 kg/m3	252.75
536.65 K, Mass density=245.67 kg/m3	321.24
536.65 K, Mass density=276.45 kg/m3	308.64
536.65 K, Mass density=279.19 kg/m3	293.23
536.65 K, Mass density=284.93 kg/m3	276.92
536.65 K, Mass density=286.65 kg/m3	311.53
536.65 K, Mass density=301.19 kg/m3	277.96
536.65 K, Mass density=347.06 kg/m3	246.82
536.83 K, Mass density=245.67 kg/m3	318.35
536.83 K, Mass density=276.45 kg/m3	300.12
536.83 K, Mass density=279.19 kg/m3	287.74
536.83 K, Mass density=284.93 kg/m3	274.25
536.84 K, Mass density=347.06 kg/m3	250.53
537.02 K, Mass density=279.19 kg/m3	289.37
537.02 K, Mass density=284.93 kg/m3	272.03
537.02 K, Mass density=301.19 kg/m3	263.13
537.02 K, Mass density=347.06 kg/m3	248.31
537.2 K, Mass density=245.67 kg/m3	296.34
537.2 K, Mass density=276.45 kg/m3	295.37
537.2 K, Mass density=279.19 kg/m3	287.81
537.2 K, Mass density=284.93 kg/m3	271.51
537.2 K, Mass density=286.65 kg/m3	304.94
537.2 K, Mass density=301.19 kg/m3	266.84
537.38 K, Mass density=245.67 kg/m3	296.56
537.38 K, Mass density=276.45 kg/m3	285.37
537.38 K, Mass density=279.19 kg/m3	282.48
537.38 K, Mass density=284.93 kg/m3	270.32
537.38 K, Mass density=286.65 kg/m3	304.42
537.38 K, Mass density=301.19 kg/m3	263.13
537.57 K, Mass density=245.67 kg/m3	297.52
537.57 K, Mass density=276.45 kg/m3	284.11
537.57 K, Mass density=279.19 kg/m3	284.26
537.57 K, Mass density=284.93 kg/m3	268.17
537.57 K, Mass density=286.65 kg/m3	301.23
537.57 K, Mass density=301.19 kg/m3	260.17
537.75 K, Mass density=276.45 kg/m3	282.92
537.75 K, Mass density=284.93 kg/m3	267.36
537.75 K, Mass density=286.65 kg/m3	302.27
537.75 K, Mass density=301.19 kg/m3	260.17
537.93 K, Mass density=117 kg/m3	227.92
537.93 K, Mass density=279.19 kg/m3	277.21
537.93 K, Mass density=286.65 kg/m3	301.23
537.93 K, Mass density=301.19 kg/m3	259.43
538.11 K, Mass density=117 kg/m3	182.93
538.11 K, Mass density=279.19 kg/m3	274.92
538.11 K, Mass density=301.19 kg/m3	253.5
538.3 K, Mass density=279.19 kg/m3	277.66
538.3 K, Mass density=286.65 kg/m3	295.15
538.3 K, Mass density=301.19 kg/m3	255.72
538.48 K, Mass density=117 kg/m3	269.06
